Test results published in patent EP0620225B1, “Cephalosporin derivatives” (Basilea Pharmaceutica AG, priority 1993, dated 1994).
In brackets after ≈: the same amount, converted by molar mass. Blank lines part the entries; values can stand above or below the compound they belong to.

Key:
E.faecium = assay: In vitro activity against selected species (MIC50, range); format: cell-based; conditions: Enterococcus faecium, medium MHA; for MIC: MIC range
Protocol: (§1) In vitro activity was determined by minimum inhibitory concentration in a microorganism spectum by the agar dilution method in Mueller Hinton agar.

Escherichia coli 25922 = assay: Efficacy against systemic infections (septicemia) in mice; format: in vivo; conditions: 96 h, survival day 4
Protocol: (§2) Septicemia was induced in outbred Swiss albino mice (Jbm MoRo [specific pathogen free]; weight 16 to 20 g, Biomedical Research Laboratories, Füllinsdorf, Switzerland). Mice were infected by intraperitoneal injection of diluted overnight cultures of the test organisms. Bacterial challenge doses were 4-10 times the number of organisms required to kill 50% of untreated animals within 48 h. The test compounds were administered p.o. or s.c. 1 and 3 h after the bacterial challenge. To treat the infection with Pseudomonas aeruginosa BA an additional dose was given 5 h after challenge. Control and treatment groups at each dose were composed of five mice each. The 50% effective dose (ED50, in milligrams per kilogram) was calculated by probit analysis as described by Finney (Finney, D.J. 1978, Statistical method in biological assay, 3rd ed. Charles Griffin & Co., Ltd., London), from the survival rates on day 4 after infection.

S.aureus Smith = assay: as above; format: in vivo; conditions: Staphylococcus aureus, 96 h, sc 1 and 3 h after challenge, survival day 4
Protocol: as §2

S.pneumoniae PEN-R = assay: In vitro activity against selected species (MIC50, MIC90, range); format: cell-based; conditions: Streptococcus pneumoniae; for MIC: MIC range
E.faecalis [1] = assay: as above; format: cell-based; conditions: Enterococcus faecalis, medium IsoB
S.viridans group 016 = assay: Antibacterial spectrum (MIC), agar dilution; format: cell-based; conditions: Streptococcus viridans, read-out: MIC
Protocol: as §1

E.cloacae 908R = assay: Antibacterial spectrum (MIC), agar dilution; format: cell-based; conditions: Enterobacter cloacae, read-out: MIC
Protocol: as §1

E.cloacae 908SSi = assay: Antibacterial spectrum (MIC), agar dilution; format: cell-based; conditions: Enterobacter cloacae, read-out: MIC
Protocol: as §1

X.maltophilia 1AC739 = assay: Antibacterial spectrum (MIC), agar dilution; format: cell-based; conditions: Stenotrophomonas maltophilia, read-out: MIC
Protocol: as §1

C.freundii 902 = assay: Antibacterial spectrum (MIC), agar dilution; format: cell-based; conditions: Citrobacter freundii, read-out: MIC
Protocol: as §1

S.aureus 6538 = assay: Antibacterial spectrum (MIC), agar dilution; format: cell-based; conditions: Staphylococcus aureus, read-out: MIC
Protocol: as §1

S.pneumoniae Q19 = assay: Antibacterial spectrum (MIC), agar dilution; format: cell-based; conditions: Streptococcus pneumoniae, read-out: MIC
Protocol: as §1

C.freundii 43 = assay: Antibacterial spectrum (MIC), agar dilution; format: cell-based; conditions: Citrobacter freundii, read-out: MIC
Protocol: as §1

N.meningitidis 69480 = assay: Antibacterial spectrum (MIC), agar dilution; format: cell-based; conditions: Neisseria meningitidis, read-out: MIC
Protocol: as §1

Acinetobacter sp.51-156 = assay: Antibacterial spectrum (MIC), agar dilution; format: cell-based; conditions: SP.51156, read-out: MIC
Protocol: as §1

E.faecalis 6 = assay: Antibacterial spectrum (MIC), agar dilution; format: cell-based; conditions: Enterococcus faecalis, read-out: MIC
Protocol: as §1

S.pyogenes B15 = assay: Antibacterial spectrum (MIC), agar dilution; format: cell-based; conditions: Streptococcus pyogenes, read-out: MIC
Protocol: as §1

M.morganii 6H-137 = assay: Antibacterial spectrum (MIC), agar dilution; format: cell-based; conditions: Morganella morganii, 6H137, read-out: MIC
Protocol: as §1

P.mirabilis 2117 = assay: Antibacterial spectrum (MIC), agar dilution; format: cell-based; conditions: Proteus mirabilis, read-out: MIC
Protocol: as §1

P.vulgaris 1028 = assay: Antibacterial spectrum (MIC), agar dilution; format: cell-based; conditions: Proteus vulgaris, read-out: MIC
Protocol: as §1

S.aureus 734 MRSA = assay: Antibacterial spectrum (MIC), agar dilution; format: cell-based; conditions: Staphylococcus aureus, read-out: MIC
Protocol: as §1

P.aeruginosa 27853 = assay: Antibacterial spectrum (MIC), agar dilution; format: cell-based; conditions: Pseudomonas aeruginosa, read-out: MIC
Protocol: as §1

S.marcescens 69438 = assay: Antibacterial spectrum (MIC), agar dilution; format: cell-based; conditions: Serratia marcescens, read-out: MIC
Protocol: as §1

M.catarrhalis RA21 = assay: Antibacterial spectrum (MIC), agar dilution; format: cell-based; conditions: Moraxella catarrhalis, read-out: MIC
Protocol: as §1

K.pneumoniae 418 = assay: Antibacterial spectrum (MIC), agar dilution; format: cell-based; conditions: Klebsiella pneumoniae, read-out: MIC
Protocol: as §1

E.coli 25922 = assay: Antibacterial spectrum (MIC), agar dilution; format: cell-based; conditions: Escherichia coli, read-out: MIC
Protocol: as §1

S.agalactiae QK44 = assay: Antibacterial spectrum (MIC), agar dilution; format: cell-based; conditions: Streptococcus agalactiae, read-out: MIC
Protocol: as §1

H.influenzae 1 = assay: Antibacterial spectrum (MIC), agar dilution; format: cell-based; conditions: Haemophilus influenzae, read-out: MIC
Protocol: as §1

E.faecalis [2] = assay: In vitro activity against selected species (MIC50, MIC90, range); format: cell-based; conditions: Enterococcus faecalis, medium MHA; for MIC: MIC range
Protocol: as §1

S.aureus MRSA = assay: as above; format: cell-based; conditions: Staphylococcus aureus, medium MHA (Mueller Hinton Agar) +NaCl; for MIC: MIC range
Protocol: as §1

M.catarrhalis = assay: as above; format: cell-based; conditions: Moraxella catarrhalis, medium IsoB
S.aureus MSSA = assay: as above; format: cell-based; conditions: Staphylococcus aureus, medium MHB (Mueller Hinton Broth); for MIC: MIC range
S.viridans group = assay: as above; format: cell-based; conditions: Streptococcus viridans
L.monocytogenes BK23 = assay: Antibacterial spectrum (MIC), agar dilution; format: cell-based; conditions: Listeria monocytogenes, read-out: MIC
Protocol: as §1

[3] = Escherichia coli, E.coli 25922, sc 1 and 3 h after challenge
[4] = medium IsoB (Isosensitest Broth)

MIC (E.faecium): 1 to 32 µg/mL (≈ 1.98 to 63.4 µM)
MIC50 (E.faecium): 4 µg/mL (≈ 7.93 µM)
MIC (S.pneumoniae PEN-R; [4]): 0.12 to 0.5 µg/mL (≈ 0.238 to 0.991 µM)
MIC (S.pneumoniae PEN-R; medium IsoB + 20% serum): 0.12 to 0.5 µg/mL
MIC50 (S.pneumoniae PEN-R; [4]): 0.25 µg/mL (≈ 0.495 µM)
MIC90 (S.pneumoniae PEN-R; [4]): 0.5 µg/mL (≈ 0.991 µM)
MIC50 (S.pneumoniae PEN-R; medium IsoB + 20% serum): 0.5 µg/mL
MIC (E.faecalis [1]; MIC range): 0.25 to 2 µg/mL (≈ 0.495 to 3.96 µM)
MIC50 (E.faecalis [1]): 1 µg/mL (≈ 1.98 µM)
MIC90 (E.faecalis [1]): 2 µg/mL (≈ 3.96 µM)
MIC (S.viridans group 016): 1 µg/mL (≈ 1.98 µM)
MIC (E.cloacae 908R): 8 µg/mL (≈ 15.9 µM)
MIC (E.cloacae 908SSi): 0.12 µg/mL (≈ 0.238 µM)
MIC (X.maltophilia 1AC739): > 32 µg/mL
MIC (C.freundii 902): ≤ 0.06 µg/mL
MIC (S.aureus 6538): 0.5 µg/mL (≈ 0.991 µM)
MIC (S.pneumoniae Q19): ≤ 0.06 µg/mL
MIC (C.freundii 43): 2 µg/mL (≈ 3.96 µM)
MIC (N.meningitidis 69480): ≤ 0.06 µg/mL
MIC (Acinetobacter sp.51-156): 16 µg/mL (≈ 31.7 µM)
MIC (E.faecalis 6): 1 µg/mL (≈ 1.98 µM)
MIC (S.pyogenes B15): ≤ 0.06 µg/mL
MIC (M.morganii 6H-137): ≤ 0.06 µg/mL
MIC (P.mirabilis 2117): ≤ 0.06 µg/mL
MIC (P.vulgaris 1028): 1 µg/mL (≈ 1.98 µM)
MIC (S.aureus 734 MRSA): 16 µg/mL (≈ 31.7 µM)
MIC (P.aeruginosa 27853): 8 µg/mL (≈ 15.9 µM)
MIC (S.marcescens 69438): 0.5 µg/mL (≈ 0.991 µM)
MIC (M.catarrhalis RA21): 8 µg/mL (≈ 15.9 µM)
MIC (K.pneumoniae 418): ≤ 0.06 µg/mL
MIC (E.coli 25922): ≤ 0.06 µg/mL
MIC (S.agalactiae QK44): 0.25 µg/mL (≈ 0.495 µM)
MIC (H.influenzae 1): 0.25 µg/mL (≈ 0.495 µM)
MIC (E.faecalis [2]): 1 to 2 µg/mL (≈ 1.98 to 3.96 µM)
MIC50 (E.faecalis [2]): 1 µg/mL (≈ 1.98 µM)
MIC90 (E.faecalis [2]): 2 µg/mL (≈ 3.96 µM)
MIC (S.aureus MRSA): 16 to 32 µg/mL (≈ 31.7 to 63.4 µM)
MIC50 (S.aureus MRSA): 16 µg/mL (≈ 31.7 µM)
MIC90 (S.aureus MRSA): 16 µg/mL (≈ 31.7 µM)
MIC (M.catarrhalis; MIC range): 1 to 32 µg/mL (≈ 1.98 to 63.4 µM)
MIC50 (M.catarrhalis): 4 µg/mL (≈ 7.93 µM)
MIC90 (M.catarrhalis): 16 µg/mL (≈ 31.7 µM)
MIC (S.aureus MSSA): 0.5 to 1 µg/mL (≈ 0.991 to 1.98 µM)
MIC50 (S.aureus MSSA): 1 µg/mL (≈ 1.98 µM)
MIC90 (S.aureus MSSA): 1 µg/mL (≈ 1.98 µM)
MIC50 (S.viridans group): 2 µg/mL (≈ 3.96 µM)
MIC90 (S.viridans group): 2 µg/mL (≈ 3.96 µM)
MIC (S.viridans group; MIC range): 0.12 to 8 µg/mL (≈ 0.238 to 15.9 µM)
Compound: Nc1nc(/C(=N/O)C(=O)N[C@@H]2C(=O)N3C(C(=O)O)=C(/C=C4\CCN(C5CC5)C4=O)CS[C@H]23)cs1 [D, [6R-[3(E),6α,7β(Z)]]-7-[[(2-Amino-4-thiazolyl)(hydroxyimino)-acetyl]amino] -3-[[1-cyclopropyl-2-oxo-3-pyrrolidinylidene]-methyl)-8-oxo-5-thia-1-azabicyclo[4.2.0]-oct-2-ene-2-carboxylic acid]
ED50 (Escherichia coli 25922; Escherichia coli 25922, po (orally) 1 and 3 h after challenge): 3 mg/kg
ED50 (Escherichia coli 25922; [3]): ≤ 0.1 mg/kg
ED50 (S.aureus Smith): < 1 mg/kg

MIC (E.faecium): 1 to 16 µg/mL (≈ 1.96 to 31.3 µM)
MIC50 (E.faecium): 2 µg/mL (≈ 3.92 µM)
MIC (S.pneumoniae PEN-R; medium IsoB + 20% serum): 0.12 to 0.5 µg/mL
MIC50 (S.pneumoniae PEN-R; medium IsoB + 20% serum): 0.5 µg/mL
MIC (S.viridans group 016): 0.5 µg/mL (≈ 0.979 µM)
MIC (E.cloacae 908R): 16 µg/mL (≈ 31.3 µM)
MIC (E.cloacae 908SSi): 0.12 µg/mL (≈ 0.235 µM)
MIC (X.maltophilia 1AC739): > 32 µg/mL
MIC (L.monocytogenes BK23): 2 µg/mL (≈ 3.92 µM)
MIC (C.freundii 902): 0.12 µg/mL (≈ 0.235 µM)
MIC (S.aureus 6538): 0.5 µg/mL (≈ 0.979 µM)
MIC (S.pneumoniae Q19): ≤ 0.06 µg/mL
MIC (C.freundii 43): 4 µg/mL (≈ 7.84 µM)
MIC (N.meningitidis 69480): ≤ 0.06 µg/mL
MIC (Acinetobacter sp.51-156): 16 µg/mL (≈ 31.3 µM)
MIC (E.faecalis 6): 1 µg/mL (≈ 1.96 µM)
MIC (S.pyogenes B15): ≤ 0.06 µg/mL
MIC (M.morganii 6H-137): ≤ 0.06 µg/mL
MIC (P.mirabilis 2117): ≤ 0.06 µg/mL
MIC (P.vulgaris 1028): 2 µg/mL (≈ 3.92 µM)
MIC (S.aureus 734 MRSA): 8 µg/mL (≈ 15.7 µM)
MIC (P.aeruginosa 27853): 32 µg/mL (≈ 62.7 µM)
MIC (S.marcescens 69438): 0.5 µg/mL (≈ 0.979 µM)
MIC (M.catarrhalis RA21): 8 µg/mL (≈ 15.7 µM)
MIC (K.pneumoniae 418): ≤ 0.06 µg/mL
MIC (E.coli 25922): ≤ 0.06 µg/mL
MIC (S.agalactiae QK44): 0.12 µg/mL (≈ 0.235 µM)
MIC (H.influenzae 1): 0.12 µg/mL (≈ 0.235 µM)
MIC (E.faecalis [2]): 0.5 to 2 µg/mL (≈ 0.979 to 3.92 µM)
MIC50 (E.faecalis [2]): 1 µg/mL (≈ 1.96 µM)
MIC90 (E.faecalis [2]): 2 µg/mL (≈ 3.92 µM)
MIC (S.aureus MRSA): 8 to 16 µg/mL (≈ 15.7 to 31.3 µM)
MIC50 (S.aureus MRSA): 8 µg/mL (≈ 15.7 µM)
MIC90 (S.aureus MRSA): 8 µg/mL (≈ 15.7 µM)
MIC (S.aureus MSSA): 0.5 to 1 µg/mL (≈ 0.979 to 1.96 µM)
MIC50 (S.aureus MSSA): 0.5 µg/mL (≈ 0.979 µM)
MIC90 (S.aureus MSSA): 1 µg/mL (≈ 1.96 µM)
Compound: Nc1nc(/C(=N/O)C(=O)N[C@@H]2C(=O)N3C(C(=O)O)=C(/C=C4\CCN(CCF)C4=O)CS[C@H]23)cs1 [F, [6R-[3(E),6α,7β(Z)]]-7-[[(2-Amino-4-thiazolyl)(hydroxyimino)-acetyl]amino] -3-[[1-(2-fluoroethyl)-2-oxo-3-pyrrolidinylidene]methyl] -8-oxo-5-this-1-azabicyclo[4.2.0]-oct-2-ene-2-carboxylic acid]
ED50 (Escherichia coli 25922; [3]): < 0.1 mg/kg
ED50 (S.aureus Smith): < 1 mg/kg
